According to paper PMC11864979, “First-in-class ultralong-target-residence-time p38α inhibitors as a mitosis-targeted therapy for colorectal cancer” (Nature Cancer, 2025):
Where two headings read alike, the source gives them in different places.

What was measured:
Assay in all cases: selectivity profiling in a panel of 340 wild-type kinases (Reaction Biology Europe)
Type in all cases: binding
340 wild-type kinases [1] = target: T1, 340 wild-type kinases (Homo sapiens, UniProt Q7KZI7)
T1 construct: purchased Reaction Biology Europe

340 wild-type kinases [2] = target: T2, 340 wild-type kinases (Homo sapiens, UniProt Q05513)
T2 construct: purchased Reaction Biology Europe
T2 sequence (Q05513 1-592): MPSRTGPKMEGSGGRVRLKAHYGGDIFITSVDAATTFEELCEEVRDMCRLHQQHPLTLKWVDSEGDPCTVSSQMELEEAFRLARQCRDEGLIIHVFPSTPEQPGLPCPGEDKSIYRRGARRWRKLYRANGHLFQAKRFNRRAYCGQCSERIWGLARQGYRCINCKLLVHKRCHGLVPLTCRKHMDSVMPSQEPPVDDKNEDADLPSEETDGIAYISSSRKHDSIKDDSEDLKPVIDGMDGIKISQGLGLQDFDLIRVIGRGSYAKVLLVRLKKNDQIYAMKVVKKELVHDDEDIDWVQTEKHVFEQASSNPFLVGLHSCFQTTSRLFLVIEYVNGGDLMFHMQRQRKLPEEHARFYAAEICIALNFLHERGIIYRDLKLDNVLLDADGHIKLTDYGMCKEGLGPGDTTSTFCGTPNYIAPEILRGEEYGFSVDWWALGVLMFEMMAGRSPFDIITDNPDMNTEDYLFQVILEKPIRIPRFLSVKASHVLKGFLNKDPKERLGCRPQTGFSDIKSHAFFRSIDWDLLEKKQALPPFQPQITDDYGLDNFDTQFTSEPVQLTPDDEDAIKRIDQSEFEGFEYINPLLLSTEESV

340 wild-type kinases [3] = target: T3, 340 wild-type kinases (Homo sapiens, UniProt P51812)
T3 construct: purchased Reaction Biology Europe

340 wild-type kinases [4] = target: T4, 340 wild-type kinases (Homo sapiens, UniProt Q6P5Z2)
T4 construct: purchased Reaction Biology Europe

340 wild-type kinases [5] = target: T5, 340 wild-type kinases (Homo sapiens, UniProt Q6XUX3)
T5 construct: purchased Reaction Biology Europe
T5 sequence (Q6XUX3 1-929): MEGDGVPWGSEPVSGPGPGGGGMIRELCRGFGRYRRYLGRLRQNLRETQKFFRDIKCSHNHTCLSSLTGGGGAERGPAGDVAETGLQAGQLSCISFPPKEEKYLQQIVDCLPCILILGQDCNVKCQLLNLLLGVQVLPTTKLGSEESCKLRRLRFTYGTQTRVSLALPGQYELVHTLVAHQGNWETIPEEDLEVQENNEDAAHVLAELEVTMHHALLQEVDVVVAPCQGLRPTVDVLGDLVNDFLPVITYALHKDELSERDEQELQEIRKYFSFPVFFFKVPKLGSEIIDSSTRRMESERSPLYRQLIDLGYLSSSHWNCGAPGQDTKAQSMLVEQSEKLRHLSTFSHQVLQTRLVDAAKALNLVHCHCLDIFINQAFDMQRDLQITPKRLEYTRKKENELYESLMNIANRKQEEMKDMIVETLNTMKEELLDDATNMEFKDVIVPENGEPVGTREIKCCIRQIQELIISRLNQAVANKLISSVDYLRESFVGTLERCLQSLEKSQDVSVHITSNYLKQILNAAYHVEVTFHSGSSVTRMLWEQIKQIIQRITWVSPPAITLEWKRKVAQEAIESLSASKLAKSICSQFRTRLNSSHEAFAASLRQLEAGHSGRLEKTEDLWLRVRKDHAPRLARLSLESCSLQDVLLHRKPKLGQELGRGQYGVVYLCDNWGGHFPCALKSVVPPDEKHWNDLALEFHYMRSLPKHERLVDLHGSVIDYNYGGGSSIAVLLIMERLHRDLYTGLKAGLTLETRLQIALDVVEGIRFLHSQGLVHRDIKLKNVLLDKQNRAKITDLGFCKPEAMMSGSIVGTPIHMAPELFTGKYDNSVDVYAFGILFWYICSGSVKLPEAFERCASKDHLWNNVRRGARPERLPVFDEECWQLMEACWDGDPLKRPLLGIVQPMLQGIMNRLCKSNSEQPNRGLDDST

340 wild-type kinases [6] = target: T6, 340 wild-type kinases (Homo sapiens, UniProt P49674)
T6 construct: purchased Reaction Biology Europe

340 wild-type kinases [7] = target: T7, 340 wild-type kinases (Homo sapiens, UniProt Q96BR1)
T7 construct: purchased Reaction Biology Europe
T7 sequence (Q96BR1 1-496): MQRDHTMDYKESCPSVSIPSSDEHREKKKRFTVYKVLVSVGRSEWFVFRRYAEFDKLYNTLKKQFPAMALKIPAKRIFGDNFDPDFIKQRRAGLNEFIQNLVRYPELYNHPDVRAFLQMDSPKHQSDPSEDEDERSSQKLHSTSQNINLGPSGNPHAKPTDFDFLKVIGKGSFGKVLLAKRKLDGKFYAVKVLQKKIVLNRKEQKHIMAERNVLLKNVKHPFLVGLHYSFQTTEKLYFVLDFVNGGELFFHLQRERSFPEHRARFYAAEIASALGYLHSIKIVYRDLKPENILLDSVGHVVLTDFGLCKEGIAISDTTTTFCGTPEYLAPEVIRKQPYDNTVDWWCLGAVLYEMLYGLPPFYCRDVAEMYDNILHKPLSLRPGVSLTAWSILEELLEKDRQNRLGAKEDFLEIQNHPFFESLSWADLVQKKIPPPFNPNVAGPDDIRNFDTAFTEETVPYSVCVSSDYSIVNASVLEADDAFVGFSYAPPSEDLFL

340 wild-type kinases [8] = target: T8, 340 wild-type kinases (Homo sapiens, UniProt P00533)
T8 construct: purchased Reaction Biology Europe
T8 sequence (P00533 25-1210): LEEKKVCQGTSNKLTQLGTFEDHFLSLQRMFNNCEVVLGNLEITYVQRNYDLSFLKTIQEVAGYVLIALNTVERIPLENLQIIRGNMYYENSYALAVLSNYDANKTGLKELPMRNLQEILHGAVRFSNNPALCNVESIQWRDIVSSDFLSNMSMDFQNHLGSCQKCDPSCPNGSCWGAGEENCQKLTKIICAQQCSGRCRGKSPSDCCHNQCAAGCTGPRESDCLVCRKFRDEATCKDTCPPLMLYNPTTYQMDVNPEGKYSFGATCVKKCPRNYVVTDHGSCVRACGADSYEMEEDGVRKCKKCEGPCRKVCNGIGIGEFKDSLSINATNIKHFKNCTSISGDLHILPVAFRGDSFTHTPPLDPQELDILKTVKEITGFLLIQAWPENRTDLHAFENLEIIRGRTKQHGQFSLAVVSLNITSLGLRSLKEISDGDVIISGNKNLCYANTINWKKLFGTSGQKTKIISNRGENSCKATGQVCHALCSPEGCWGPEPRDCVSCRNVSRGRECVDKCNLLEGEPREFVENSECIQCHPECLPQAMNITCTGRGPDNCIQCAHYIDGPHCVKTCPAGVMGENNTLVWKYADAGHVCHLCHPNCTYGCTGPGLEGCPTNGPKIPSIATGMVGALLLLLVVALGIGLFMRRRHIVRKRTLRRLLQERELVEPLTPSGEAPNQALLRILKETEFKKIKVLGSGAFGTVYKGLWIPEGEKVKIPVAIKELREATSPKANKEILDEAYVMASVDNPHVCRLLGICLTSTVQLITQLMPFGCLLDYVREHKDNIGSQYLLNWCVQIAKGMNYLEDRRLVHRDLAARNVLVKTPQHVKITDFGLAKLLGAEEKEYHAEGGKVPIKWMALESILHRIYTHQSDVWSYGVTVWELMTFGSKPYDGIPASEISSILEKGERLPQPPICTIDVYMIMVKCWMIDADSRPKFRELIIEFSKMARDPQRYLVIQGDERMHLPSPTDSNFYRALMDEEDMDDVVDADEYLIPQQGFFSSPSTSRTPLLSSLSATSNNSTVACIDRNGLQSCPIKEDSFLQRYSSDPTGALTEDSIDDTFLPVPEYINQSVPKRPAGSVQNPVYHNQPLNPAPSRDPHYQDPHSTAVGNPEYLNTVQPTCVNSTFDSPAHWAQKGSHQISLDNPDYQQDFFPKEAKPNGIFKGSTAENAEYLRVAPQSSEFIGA

T4 sequence (Q6P5Z2 whole entry): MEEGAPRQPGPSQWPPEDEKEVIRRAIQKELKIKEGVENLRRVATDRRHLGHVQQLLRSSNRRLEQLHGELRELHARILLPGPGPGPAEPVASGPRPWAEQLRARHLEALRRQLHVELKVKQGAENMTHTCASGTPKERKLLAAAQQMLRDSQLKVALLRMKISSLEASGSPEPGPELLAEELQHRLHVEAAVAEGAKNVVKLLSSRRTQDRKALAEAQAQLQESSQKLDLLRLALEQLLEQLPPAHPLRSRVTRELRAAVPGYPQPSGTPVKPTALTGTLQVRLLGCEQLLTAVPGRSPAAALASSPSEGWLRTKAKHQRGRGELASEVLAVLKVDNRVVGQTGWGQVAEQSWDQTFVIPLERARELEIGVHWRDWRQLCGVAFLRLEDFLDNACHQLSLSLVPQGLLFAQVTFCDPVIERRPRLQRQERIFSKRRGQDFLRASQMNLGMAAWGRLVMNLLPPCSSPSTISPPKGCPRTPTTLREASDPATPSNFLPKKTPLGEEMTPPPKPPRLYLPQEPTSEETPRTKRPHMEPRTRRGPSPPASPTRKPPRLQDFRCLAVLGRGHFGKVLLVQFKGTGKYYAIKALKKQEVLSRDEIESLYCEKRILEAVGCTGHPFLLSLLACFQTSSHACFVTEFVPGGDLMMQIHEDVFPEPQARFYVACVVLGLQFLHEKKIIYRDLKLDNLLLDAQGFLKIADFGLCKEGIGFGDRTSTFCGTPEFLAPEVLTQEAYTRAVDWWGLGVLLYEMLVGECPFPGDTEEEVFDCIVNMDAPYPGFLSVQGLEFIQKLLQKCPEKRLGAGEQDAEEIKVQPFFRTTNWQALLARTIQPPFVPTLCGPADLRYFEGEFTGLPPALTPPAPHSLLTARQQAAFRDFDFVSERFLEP
T1 sequence (Q7KZI7 whole entry): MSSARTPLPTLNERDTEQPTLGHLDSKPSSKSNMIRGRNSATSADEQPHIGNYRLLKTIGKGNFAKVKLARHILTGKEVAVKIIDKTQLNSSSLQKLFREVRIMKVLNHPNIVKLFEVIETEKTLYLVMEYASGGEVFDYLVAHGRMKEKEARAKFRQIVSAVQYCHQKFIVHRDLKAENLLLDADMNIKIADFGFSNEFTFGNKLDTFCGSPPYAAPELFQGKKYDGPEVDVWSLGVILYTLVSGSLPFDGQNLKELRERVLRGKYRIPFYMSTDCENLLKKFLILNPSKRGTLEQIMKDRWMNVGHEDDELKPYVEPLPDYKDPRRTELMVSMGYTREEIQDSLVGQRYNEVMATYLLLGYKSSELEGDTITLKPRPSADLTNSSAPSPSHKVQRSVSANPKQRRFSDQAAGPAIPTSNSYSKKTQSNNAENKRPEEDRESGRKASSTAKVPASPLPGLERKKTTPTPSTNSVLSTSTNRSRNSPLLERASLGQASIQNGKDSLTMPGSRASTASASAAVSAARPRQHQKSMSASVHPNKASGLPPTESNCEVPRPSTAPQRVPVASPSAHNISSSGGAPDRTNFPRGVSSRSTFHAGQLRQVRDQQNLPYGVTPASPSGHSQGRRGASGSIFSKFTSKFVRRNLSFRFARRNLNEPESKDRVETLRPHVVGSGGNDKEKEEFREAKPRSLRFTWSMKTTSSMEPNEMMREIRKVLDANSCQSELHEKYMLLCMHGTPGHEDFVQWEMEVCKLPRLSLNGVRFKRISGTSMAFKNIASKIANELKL
T3 sequence (P51812 whole entry): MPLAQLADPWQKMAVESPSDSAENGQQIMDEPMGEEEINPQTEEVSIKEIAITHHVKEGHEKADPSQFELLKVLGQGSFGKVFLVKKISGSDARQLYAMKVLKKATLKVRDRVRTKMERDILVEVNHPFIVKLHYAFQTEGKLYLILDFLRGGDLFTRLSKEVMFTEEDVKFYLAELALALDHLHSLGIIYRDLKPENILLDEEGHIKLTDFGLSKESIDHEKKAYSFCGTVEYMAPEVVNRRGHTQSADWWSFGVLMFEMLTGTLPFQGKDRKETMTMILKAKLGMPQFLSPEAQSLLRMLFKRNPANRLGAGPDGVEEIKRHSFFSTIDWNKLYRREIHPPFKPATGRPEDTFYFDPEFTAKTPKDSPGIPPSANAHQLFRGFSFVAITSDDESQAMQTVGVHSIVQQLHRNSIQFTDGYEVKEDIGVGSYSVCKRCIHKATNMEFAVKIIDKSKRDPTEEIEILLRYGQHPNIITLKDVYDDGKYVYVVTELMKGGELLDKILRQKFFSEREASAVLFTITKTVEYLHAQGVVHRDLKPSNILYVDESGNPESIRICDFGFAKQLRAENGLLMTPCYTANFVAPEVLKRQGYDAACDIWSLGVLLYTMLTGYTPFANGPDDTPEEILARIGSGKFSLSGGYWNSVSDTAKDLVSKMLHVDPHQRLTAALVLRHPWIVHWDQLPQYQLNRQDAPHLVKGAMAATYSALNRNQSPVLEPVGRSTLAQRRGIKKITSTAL
T6 sequence (P49674 whole entry): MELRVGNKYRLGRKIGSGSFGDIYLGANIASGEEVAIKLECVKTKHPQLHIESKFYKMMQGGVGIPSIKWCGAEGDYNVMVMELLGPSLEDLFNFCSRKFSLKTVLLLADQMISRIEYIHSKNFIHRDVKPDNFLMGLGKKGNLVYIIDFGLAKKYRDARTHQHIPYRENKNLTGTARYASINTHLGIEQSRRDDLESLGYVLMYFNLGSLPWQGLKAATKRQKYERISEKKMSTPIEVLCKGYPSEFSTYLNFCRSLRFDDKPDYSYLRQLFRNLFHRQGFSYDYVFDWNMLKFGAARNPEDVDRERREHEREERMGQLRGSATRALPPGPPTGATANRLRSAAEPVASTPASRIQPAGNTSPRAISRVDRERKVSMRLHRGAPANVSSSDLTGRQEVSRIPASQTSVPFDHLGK

Q: CNC(=O)c1ccc2c(c1)C(=O)c1ccc(Nc3ccc(F)c(NC(=O)C4CC4)c3)cc1CC2 [Compound 2015] was tested. Which remaining activity at 0.2 µM (340 wild-type kinases [1]; 0.2 µM 2015, read-out: MARK2 residual activity) did it give?
A: 101%

Q: What about the remaining activity at 1 µM (340 wild-type kinases [1]; 1 µM 2015, read-out: MARK2 residual activity) of the same compound?
A: 99.5%

Q: And the remaining activity at 0.2 µM (340 wild-type kinases [1]; MARK2, 0.2 µM, read-out: residual activity)?
A: 101%

Q: What about the remaining activity at 1 µM (340 wild-type kinases [1]; MARK2, 1 µM, read-out: residual activity) of the same compound?
A: 99.5%

Q: What about the remaining activity at 0.2 µM (340 wild-type kinases [2]; 0.2 µM 2015, read-out: PKCzeta residual activity) of the same compound?
A: 126%

Q: And the remaining activity at 0.2 µM (340 wild-type kinases [2]; 0.2 µM 2015, read-out: PKMzeta residual activity)?
A: 106%

Q: What about the remaining activity at 1 µM (340 wild-type kinases [2]; 1 µM 2015, read-out: PKCzeta residual activity) of the same compound?
A: 111%

Q: And the remaining activity at 1 µM (340 wild-type kinases [2]; 1 µM 2015, read-out: PKMzeta residual activity)?
A: 102%

Q: What about the remaining activity at 0.2 µM (340 wild-type kinases [2]; PKCzeta, 0.2 µM, read-out: residual activity) of the same compound?
A: 126%

Q: What about the remaining activity at 1 µM (340 wild-type kinases [2]; PKCzeta, 1 µM, read-out: residual activity) of the same compound?
A: 111%

Q: And the remaining activity at 0.2 µM (340 wild-type kinases [3]; 0.2 µM 2015, read-out: RPS6KA3 residual activity)?
A: 107%

Q: What about the remaining activity at 1 µM (340 wild-type kinases [3]; 1 µM 2015, read-out: RPS6KA3 residual activity) of the same compound?
A: 103%

Q: And the remaining activity at 0.2 µM (340 wild-type kinases [3]; RPS6KA3, 0.2 µM, read-out: residual activity)?
A: 107%

Q: And the remaining activity at 1 µM (340 wild-type kinases [3]; RPS6KA3, 1 µM, read-out: residual activity)?
A: 103%

Q: And the remaining activity at 0.2 µM (340 wild-type kinases [4]; 0.2 µM 2015, read-out: PKN3 residual activity)?
A: 84.5%

Q: What about the remaining activity at 1 µM (340 wild-type kinases [4]; 1 µM 2015, read-out: PKN3 residual activity) of the same compound?
A: 95.6%

Q: What about the remaining activity at 0.2 µM (340 wild-type kinases [4]; PKN3, 0.2 µM, read-out: residual activity) of the same compound?
A: 84.5%

Q: And the remaining activity at 1 µM (340 wild-type kinases [4]; PKN3, 1 µM, read-out: residual activity)?
A: 95.6%

Q: What about the remaining activity at 0.2 µM (340 wild-type kinases [5]; 0.2 µM 2015, read-out: RIPK5 residual activity) of the same compound?
A: 92.4%

Q: What about the remaining activity at 1 µM (340 wild-type kinases [5]; 1 µM 2015, read-out: RIPK5 residual activity) of the same compound?
A: 88.1%

Q: And the remaining activity at 0.2 µM (340 wild-type kinases [5]; RIPK5, 0.2 µM, read-out: residual activity)?
A: 92.4%

Q: What about the remaining activity at 1 µM (340 wild-type kinases [5]; RIPK5, 1 µM, read-out: residual activity) of the same compound?
A: 88.1%

Q: And the remaining activity at 0.2 µM (340 wild-type kinases [6]; 0.2 µM 2015, read-out: CK1epsilon residual activity)?
A: 114%

Q: What about the remaining activity at 1 µM (340 wild-type kinases [6]; 1 µM 2015, read-out: CK1epsilon residual activity) of the same compound?
A: 111%

Q: And the remaining activity at 0.2 µM (340 wild-type kinases [6]; CK1epsilon, 0.2 µM, read-out: residual activity)?
A: 114%

Q: And the remaining activity at 1 µM (340 wild-type kinases [6]; CK1epsilon, 1 µM, read-out: residual activity)?
A: 111%

Q: What about the remaining activity at 0.2 µM (340 wild-type kinases [7]; 0.2 µM 2015, read-out: SGK3 residual activity) of the same compound?
A: 107%

Q: And the remaining activity at 1 µM (340 wild-type kinases [7]; 1 µM 2015, read-out: SGK3 residual activity)?
A: 92.1%

Q: What about the remaining activity at 0.2 µM (340 wild-type kinases [7]; SGK3, 0.2 µM, read-out: residual activity) of the same compound?
A: 107%

Q: What about the remaining activity at 1 µM (340 wild-type kinases [7]; SGK3, 1 µM, read-out: residual activity) of the same compound?
A: 92%

Q: What about the remaining activity at 0.2 µM (340 wild-type kinases [8]; 0.2 µM 2015, read-out: EGFR residual activity) of the same compound?
A: 108%

Q: And the remaining activity at 1 µM (340 wild-type kinases [8]; 1 µM 2015, read-out: EGFR residual activity)?
A: 96.6%

Q: What about the remaining activity at 0.2 µM (340 wild-type kinases [8]; EGFR, 0.2 µM, read-out: residual activity) of the same compound?
A: 108%

Q: And the remaining activity at 1 µM (340 wild-type kinases [8]; EGFR, 1 µM, read-out: residual activity)?
A: 96.6%
